Assay results as given in patent publication US5378846A, “1,2,3,4-tetrahydropyrrolo-[1,2-a]-pyrazine derivatives” (Russian-American Institute For New Drug Development, priority 1993, dated 1995).
Entries after “also recorded” stand apart in the source; their conditions may differ. Like-named read-outs stand apart in the source and are kept apart here.

How the values were obtained:
[1] = test system: rat behavior in Vogel conflict test; assay: Vogel conflict test (anxiolytic activity, punished responses in water-deprived rats); format: in vivo, outbred male albino rats
Text: Compounds according to the present invention were checked for their anxiolytic activity. Behaviour suppressed by punishment is a very reliable indicator of the anxiolytic activity of drugs. A variant of the conflict situation test was used to reveal anxiety in water-deprived rats whose licking was suppressed by shock (see Vogel et al., Phychopharmacologia, 21, 1-7 (1971); J. E. Barrett in Animal Models in Psychopharmacology, Advances in Pharmacological Sciences, 1991; and Birkhauser Verlag, Basel, p. 37.52, Molodavkin et al., Exper. Clin. Pharmacol., 56, (1993), which are incorporated herein by reference).
The experiments were carried out using outbred male albino rats (180-220 g). This experiment involved previous training of water-deprived rats to drink water from a trough. Next day electrical stimulation was given delivering 0.5 mA electric shocks through the trough and metal grid floor of the experimental chamber. A conflict situation was created by clashing motivations (survival and self defense). The degree of anxiolytic activity was estimated by the measurement of the amount of punished licks for 10 min. Each compound was administered intraperitoneally 45 min. before the conflict test.

[2] = test system: locomotor activity in mice; assay: Locomotor activity in mice (actometer); format: in vivo, outbred male mice; conditions: for The number of movements for 3 min., horizontal activity / The number of movements for 3 min., vertical activity: i.p.
Procedure: (§1) Compounds according to the present invention were checked for their influence on gross behaviour. The experiments described herein (Examples 11, 12, 13, 14, and 15) were carried out using outbred male mice weighing approximately 18-24 g. Each substance was administered intraperitoneally 45 min. before the experiment. Locomotor activity was estimated individually for each animal for 3 min. using an actometer `Era-1` (Russia).

[3] = test system: duration of immobility in mice; assay: Behavioural despair test (forced swimming); format: in vivo, outbred male mice; conditions: for The duration of immobility: i.p.
Procedure: as §1
The influence of compounds on behavioral despair was studied according to the model described by Porsolt et al., Arch. int. pharmacodyn.et ther., 228, 327-[…] (1977), which is incorporated herein by reference. Mice, when forced to swim in a cylinder of water without the possibility of escape, rapidly adopt a characteristic immobile posture. […] The only movements they make are those necessary to keep their heads above water.

Acute toxicity in mice = conditions: mouse, in vivo, ip, mice, i.p.
Procedure: as §1
(§2) The compounds of the present invention were checked for acute toxicity in outbred male mice (18-22 g.). They were administered intraperitoneally and the lethality was estimated 24 hours later (Table 6). In the dose range of 500-1000 mg/kg i.p. Compound 1 caused death in 50% of the animals. Compound 1 is almost 5 times less toxic than other compounds.

outbred male mice = assay: Acute toxicity in mice; conditions: mouse, in vivo, ip
Procedure: as §1, §2

[4] = test system: convulsive effect of pentylenetetrazole in mice; assay: Convulsive effect of pentylenetetrazole; format: in vivo, outbred male mice
Procedure: as §1
The influence of Compound 1 on the latency of convulsions and on the duration of animals' lives after pentylenetetrazole (130 mg/kg subcutaneously) was studied in outbred mice.

BALB/c mice = assay: Open field test, BALB/c mice; format: in vivo, male BALB/c mice; conditions: for Central activity / Crosses of Squires / Emotionality (N. of defec.) / Total locomotor activity / Vert. stands: BALB/c, i.p.
Procedure: The effects of Compound 1 on different emotional stress reactions (ESR) in male mice of C57 B1/6 and BALB/c strains were studied. ESR indices were evaluated as changes in mice ambulations, defecations and motor activity in an "open field" test (Seredenin S. B., Vedernikov, A. A., Bull. Exp. Biol. Med., 100, No. 7, 38-40 (1979), which is incorporated herein by reference). Compound 1 was injected in different doses intraperitoneally 45 min. before test.

memory formation in rats = assay: Passive avoidance test, step-through (memory formation, retention); format: in vivo, outbred male albino rats
Procedure: The influence of Compound 1 on memory formation was studied in a passive avoidance test, step-through paradigm (equipment of Laffaette Co., USA). The experiments were carried out on outbred male albino rats ([…]). Compound 1 and other drugs were administered intraperitoneally 45 min. before the passive avoidance training. The retention was tested 24 hours later learning (painful electroshock in the dark compartment) by the measurement of the time spent in the dark compartment for 3 min.

motor behavior in mice [5] = assay: Rotating rod test (coordination of movements and myorelaxation); conditions: for Disturbances according to rotating rod test, effect in %: mice
Procedure: (§3) The influence of Compound 1 on the motor behavior was studied according to a "rotating rod" test and a "horizontal wire" test in outbred male mice (18-22 g). A rotating rod (2 cm diameter and 5 rpm speed) was used. Acquisition was defined as the ability to remain on the rotating rod for 2 min. Each animal had two trials. According to the "horizontal wire" test a mouse was hung on the wire (0.3 cm. diameter, wire was fixed horizontally 40 cm above the floor) by the forepaws. The ability to pull the hind legs up to the wire for 2 min. was a criterion of test performance.

motor behavior in mice [6] = assay: Horizontal wire test (coordination of movements and myorelaxation); conditions: mice
Procedure: as §3

[7] = 10 mg/kg + pentylenetetrazole 130 mg/kg s.c.
[8] = rat, 5.0 mg/kg i.p., retention 24 hours later, 3 min

Compound: O=C(O)CCC(=O)O.c1cc2n(c1)CCNC2 [Compound 1, 1,2,3,4-tetrahydropyrrolo-[1,2-a]-pyrazine hydrosuccinate]
- Anxiolytic effectiveness after chronic administration, in words ([1]; 5 mg/kg i.p. once daily for 40 days): anxiolytic effectiveness of Compound 1 is preserved after its chronic administration
- The number of punished responses ([1]; rat, 2.0 mg/kg i.p., 45 min before test, Table 1): 43.52 ± 14.8
- The number of punished responses ([1]; rat, acute administration, 5 mg/kg, Table 3): 49.52 ± 15.91
- The number of punished responses ([1]; rat, chronic administration, 5 mg/kg i.p. once daily for 40 days, Table 3): 85.8 ± 6.7
- The number of punished responses ([1]; rat, i.p., dose 0.5 mg/kg, Table 2): 49.88 ± 19.27
- The number of punished responses ([1]; rat, i.p., dose 1.0 mg/kg, Table 2): 41.29 ± 16.71
- The number of punished responses ([1]; rat, i.p., dose 2.0 mg/kg, Table 2): 43.52 ± 14.8
- The number of punished responses ([1]; rat, i.p., dose 5.0 mg/kg, Table 2): 29.88 ± 13.13
- The number of punished responses ([1]; rat, i.p., dose 10.0 mg/kg, Table 2): 30.88 ± 10.93
- Anxiolytic effect in Vogel conflict test, in words ([1]; rat, i.p., Compound 1 vs diazepam: 0.5-2 mg/kg vs 1 and 2 mg/kg): increase the amount of punished responses in a Vogel conflict test after acute and chronic administration; also recorded: displayed more anxiolytic effect than diazepam
- Influence on spontaneous motor activity, in words ([2]; 0.1-0.3 mg/kg i.p.): neither stimulated nor depressed the spontaneous motor activity
- The number of movements for 3 min., horizontal activity ([2]; 0.1 mg/kg): 650.8 ± 12.5
- The number of movements for 3 min., vertical activity ([2]; 0.1 mg/kg): 24.7 ± 2.5
- The number of movements for 3 min., horizontal activity ([2]; 0.3 mg/kg): 657.7 ± 15.5
- The number of movements for 3 min., vertical activity ([2]; 0.3 mg/kg): 25.2 ± 4.1
- Influence on duration of immobility, in words ([3]; forced swimming): did not show any activity; also recorded: does not change the duration of immobility
- The duration of immobility ([3]; 5.0 mg/kg): 117.3 ± 6.9 s
- The duration of immobility ([3]; 10.0 mg/kg): 110.8 ± 5.1 s
- LD50 at 24 h (Acute toxicity in mice; 24 hours, read-out: Dose range causing death in 50% of the animals): 500 to 1000 mg/kg
- LD50 at 24 h (Acute toxicity in mice; lethality 24 hours later, Table 6 (range in brackets beside), read-out: LD50): 1540 mg/kg
- Times less toxic than other compounds (outbred male mice): ~5 times
- Duration of animal survival [4, 7]: 7.3 ± 1.0 min
- Latency of clon. [4, 7]: 3.35 ± 0.7 min
- Latency of ton. [4, 7]: 7.06 ± 1.0 min
- Effect on latency of convulsions and animal survival after pentylenetetrazole, in words ([4]; pentylenetetrazole 130 mg/kg subcutaneously): increase the duration of animals' survival after pentylenetetrazole injection; also recorded: causes prolongation of the latency of convulsions and of animal survival after pentylenetetrazole
- Open field behavior of BALB/c mice, in words (BALB/c mice; 2.5 and 5.0 mg/kg i.p.): produces activating (anxiolytic) effect in initially low active BALB/c mice; also recorded: caused ambulation increase elevating the central activity, and defecation decrease in BALB/c mice
- Central activity (BALB/c mice; 0.1 mg/kg): 0.0
- Crosses of Squires (BALB/c mice; 0.1 mg/kg): 21.2 ± 5.8
- Emotionality (N. of defec.) (BALB/c mice; 0.1 mg/kg): 0.5 ± 0.17
- Total locomotor activity (BALB/c mice; 0.1 mg/kg): 21.2 ± 5.8
- Vert. stands (BALB/c mice; 0.1 mg/kg): 0.0
- Central activity (BALB/c mice; 1.0 mg/kg): 0.4 ± 0.3
- Crosses of Squires (BALB/c mice; 1.0 mg/kg): 25.6 ± 4.6
- Emotionality (N. of defec.) (BALB/c mice; 1.0 mg/kg): 1.2 ± 0.13
- Total locomotor activity (BALB/c mice; 1.0 mg/kg): 26.1 ± 4.6
- Vert. stands (BALB/c mice; 1.0 mg/kg): 0.1 ± 0.1
- Central activity (BALB/c mice; 5.0 mg/kg): 2.4 ± 0.9
- Crosses of Squires (BALB/c mice; 5.0 mg/kg): 29.8 ± 5.2
- Emotionality (N. of defec.) (BALB/c mice; 5.0 mg/kg): 0.45 ± 0.11
- Total locomotor activity (BALB/c mice; 5.0 mg/kg): 33.0 ± 6.1
- Vert. stands (BALB/c mice; 5.0 mg/kg): 0.9 ± 0.5
- Influence on learning and memory formation, in words (memory formation in rats; passive avoidance): able to facilitate memory trace formation; also recorded: able to facilitate the learning ability: the time spent in the dark compartment was significantly decreased
- The time spent in dark compartment (memory formation in rats; [8]): 15.9 ± 3.4 s
- The time spent in light compartment (memory formation in rats; [8]): 164.1 ± 9.4 s
- Disturbances according to rotating rod test, effect in % (motor behavior in mice [5]; dose 5.0): 0%
- Disturbances according to rotating rod test, effect in % (motor behavior in mice [5]; dose 10.0): 0%
- Disturbances according to rotating rod test, effect in % (motor behavior in mice [5]; dose 20.0): 0%
- Disturbances according to rotating rod test, effect in % (motor behavior in mice [5]; dose 40.0): 0%
- Disturbances according to rotating rod test, effect in % (motor behavior in mice [5]; dose 80.0): 0%
- Disturbances according to rotating rod test, effect in % (motor behavior in mice [5]; dose 250.0): 0%
- Motor behavior disturbance and myorelaxation, in words (motor behavior in mice [5]; rotating rod and horizontal wire tests, Compound 1 5-250 mg/kg): does not manifest amnestic and myorelaxant effects; also recorded: fails to evoke disturbances in the coordination of movements and myorelaxation
- Disturbances according to horizontal wire test, effect in % (motor behavior in mice [6]; dose 5.0): 0%
- Disturbances according to horizontal wire test, effect in % (motor behavior in mice [6]; dose 10.0): 0%
- Disturbances according to horizontal wire test, effect in % (motor behavior in mice [6]; dose 20.0): 0%
- Disturbances according to horizontal wire test, effect in % (motor behavior in mice [6]; dose 40.0): 0%
- Disturbances according to horizontal wire test, effect in % (motor behavior in mice [6]; dose 80.0): 0%
- Disturbances according to horizontal wire test, effect in % (motor behavior in mice [6]; dose 250.0): 0%
